Source: patent publication US5073571A, “Method of inhibiting virus” (priority 1989, dated 1991)

Tests used:
HIV-1 [1] = assay: HIV-1 replication in H9 cells, reverse transcriptase activity of culture supernatants (acute infection); assay type: cell-based, HIV-1 strain HXB2gptX (in human H9 cells); conditions: for activity at 100 µM: Human immunodeficiency virus 1, H9, 240 h, read-out: reverse transcriptase (RT) activity; for effect on reverse transcriptase activity: 1-10 μM, 10 day incubation, HIV-1 infected H9 cells
Description: (§1) Media was changed every other day. The effect of these compounds on virus production was determined by measuring the reverse transcriptase (RT) activity in samples of the cell culture supernatants. […] Negative controls consisted of no additions or 0.1ethanol. The results of duplicate assays were averaged. Panel B -Concentration-dependent effects of 13-oxamyristic acid on HIV-1 replication as measured by RT activity (percent of untreated control) and the presence of p24 antigen (ng/ml determined by ELISA). Error bars indicate the S.E.M. of assays done in triplicate. Panel C - The effect of 13-oxamyristic acid on syncytia formation using an arbitrary scale described under Materials and Methods, Example 16, below. Panel D - Toxicity of 13-oxamyristic acid determined by viable cell count (trypan blue exclusion), as well as by [^3 H]thymidine and [^3 H]leucine labeling (see under Materials and Methods, Example 16, below). The incorporation of these radiolabeled compounds was determined in the total cell population contained in a well after 10 days of treatment with the analog. Duplicate assays were performed and the results averaged.
Assay for HIV-1 Replication. The human T-lymphoid cell line, H9, was provided by R. D. Gallo (NIH) and maintained in RPMI-1640 medium supplemented with 10% fetal bovine serum, 100 IU/mL penicillin, 100 μg/mL streptomycin an 2 mM L-glutamine. HIV-1 strain HXB2gptX [Fisher et al., Science 233, 655-659 (1986)] was obtained from cultures of chronically infected H9 cells [Popovic et al., Science 224, 497-500 (1984)]< filtered through 0.2 μm Millipore filters and stored at -90° C. The titer of the virus stock was determined by serial dilution using syncytia formation and reverse transcriptase activity (see below) as a measure of infectivity in H9 cells.
Cell-free HIV-1, at a multiplicity of infection (m.o.i.) equal to 0.01-0.001, was added to 10^7 H9 cells which had been pretreated with 2 μg/ml Polybrene® (hexadimethrene bromide, Sigma). Following a 30 min incubation at 37° C. to absorb the virus, 4 × 10^5 of virus treated cells in 1 mL of fresh medium (plus 10% fetal calf serum, pencillin and streptomycin) were added to each well of a 24 well tissue culture plate (Falcon), and mixed with an equal volume of serum-free RPMI-1640 medium containing analog. Medium containing 5% serum, antibiotics ± analog was replaced every other day. Each of the heteroatom substituted analogs was prepared as a 100 mM stock solution in 100% ethanol and stored at -90° C. prior to dilution in the serum-free RPMI-1640 medium. The maximum final ethanol concentration reached after dilution of the different analogs in media was 0.1%. Therefore, uninfected and infected H9 cells, treated with or without 0.1% ethanol, were used as controls for each test. Ethanol alone had no demonstrable effects.
Except for the preliminary screening of the various (coded) analogs which was done twice, all other assays were performed at least three times. Samples were tested in duplicate each time the assay was repeated.
Virus Assays. Virus was quantitated using supernatant solutions of cells harvested on day 8 (m.o.i.=0.01) or day 10 (m.o.i.=0.001) of treatment. Virions were concentrated 10 fold by precipitation of culture supernatants with a solution of polyethylene glycol (30% in 150 mM NaCl, 0.1 mM phenylmethylsulfonylfluoride). The precipitates were solubilized and virus-associated reverse transcriptase (RT) activity measured by [^32 P]TTP incorporation using a poly(rA)-oligo(dT) template [Poiesz et al., Proc. Natl. Acad. Sci. USA 77, 7415-7419 (1980)]. Cell supernatants were also tested for virus-specific antigen using a p24 ELISA from Dupont (Wilmington, DE). This assay can detect as little as 0.03 ng of antigen/mL (antigen=p24, the major structural nucleocapsid protein of HIV-1, as well as its precursor, Pr55^gag).
HIV-1 Replication in H9 Cells is Inhibited by Treatment with Heteroatom-Containing Analogs of Myristate. […]

MoMLV = MoMLV replication: LZ1 virus titer by histochemical staining of NIH 3T3 cells for β-galactosidase; assay type: cell-based, Maloney murine leukemia virus
Text: Panel A -Schematic representation of the MoMLV assay system. […] This cell produces infectious, replication defective virus (designated (LZ1) which carries the LacZ gene. When NIH3T3 cells are exposed to supernatant taken from the LZ1 virus producing cells, they are initially infected and their progeny are detectable by histochemical staining for β-galactosidase. Thus, the titer of the virus produced by the LZ1 cells after treatment with the various agents, can be readily determined by counting the number of blue NIH3T3 cells. Replication competent MoMLV is not detected using this assay system since the lacZ gene product is not present. Panel B - The effect of 6-oxamyristic acid and 13-oxamyristic acid on LZ1 virus production. The results represent the mean (+1 standard deviation) of three independent tests each done in duplicate. Panel C - Number of viable LZ1 producing cells at the end of a 2 day treatment with analog as measured by trypan blue exclusion. The results of duplicate assays were averaged. Panel D - The effects of analog treatment on incorporation of [^3 H]leucine. Cells in duplicate wells were pulse labeled for 4 h following three days of incubation with analog or ethanol (0.1%). Duplicate assays were performed. The results were averaged and expressed as a percentage of the results obtained from untreated cells.
Assay of the Effects of Analogs on the Replication of Maloney Murine Leukemia Virus. The LZ1 titer assay was developed for rapid histochemical quantitation of infectious virus production. In brief, the LZ1 virus-producing cell line was derived by Sanes et al., EMBO J. 5, 3133-3142 (1986), from the .PSI.-2 cell line. .PSI.-2-cells are NIH 3T3 cells that contain a stably integrated packaging mutant (pMOV-.PSI.-) of MoMLV. This mutant has a deletion of 350 nucleotides between the 5' donor splice site for env and the initiator methionine codon for Pr65^gag [Mann et al., Cell 33, 153-159 (1983)]. The LZ1 cell line is a subclone of .PSI.-2 cells that were co-transfectd with pM-MuLV-SV-LacZ [Sanes et al., supra.]and pSVTK neoB and then selected for G418 (Geneticin®) antibiotic resistance and production of defective MoMLV containing the E. coli β-galactosidase gene [Sanes et al., supra.]. The recombinant virus produced by LZ1 cells is capable of primary infection of NIH 3T3 cells but is replication defective [Sanes et al., surpa.]. Infected NIH 3T3 containing the lac-Z gene can be identified by histochemical staining for β-galactosidase activity.
To assess the effects of analog treatment on MoMLV replication, 1 × 10^5 LZ1 producing cells were added to each well of a 24-well tissue culture plate in 1 mL of Dulbecco's Modified Eagle's medium (DME) containing calf serum (final concentration =10%), penicillin (100 IU/mL), streptomycin (100 μg/mL) with or without analog (10-100 μM). After 24 h, the media was removed and fresh serum-containing media ±analog was added. The next day (48 hours after plating), the virus containing supernatant was removed and passed through a 0.2 μm filter. Various size aliquots (25-100 μL of the 1 mL filtrate) were added to 1 × 10^4 NIH 3T3 cells contained in 1 mL of DME/10% calf serum/penicillin/streptomycin. These indicator cells had been plated 24 h earlier in 24 well tissue culture plates. Polybrene (Sigma) was added at the same time as the filtrate so that its final concentration was 10 μg/mL. […]

HIV-1 [2] = assay: Syncytia assay in HIV-1 infected H9 cells; assay type: cell-based, HIV-1 strain HXB2gptX (in human H9 cells); conditions: compared to infected, untreated H9 controls
Description: as §1
Assay for HIV-1 Replication. The human T-lymphoid cell line, H9, was provided by R. D. Gallo (NIH) and maintained in RPMI-1640 medium supplemented with 10% fetal bovine serum, 100 IU/mL penicillin, 100 μg/mL streptomycin an 2 mM L-glutamine. […] The titer of the virus stock was determined by serial dilution using syncytia formation and reverse transcriptase activity (see below) as a measure of infectivity in H9 cells. […]
Syncytia Assay. The number of syncytia in each well was determined by microscopic examination on days 4-6 (infected, untreated control cultures), 8 and 10 (analog or decanoate treated cultures). The average number of multi-nucleated giant cells counted per 10 low-power fields (LPF =40 times magnification) was assigned to an arbitrary syncytia scale: 0=<1/LPF, 1+=1-4/LPF, 2+=5-7/LPF, 3+= 8-10/LPF, 4+=>10/LPF. By this criteria uninfected, control cells had zero synctia, and infected, untreated H9 cells were consistently scored as 4+.

virus = assay: Antiviral effectiveness compared with C13-C14 analogs; conditions: C16 saturated fatty acid analog
AIDS virus (HIV) = conditions: cited from earlier work
[3] = test system: myristoyl CoA: protein N-myristoyl transferase (NMT); assay: Ability to act as substrate for NMT; assay type: biochemical
Text: Purification and use of this enzyme are described, for example, by Towler et al., Proc. Natl. Acad. Sci. USA 84, 2708-2712 (1987); J. Biol. Chem. 262, 1030-1036 (1987).

Hydrophobicity = assay type: physicochemical; conditions: thioether moiety introduced into the fatty acid chain

CCCCCCCCCC(=O)O [decanoic acid, reference compound]
activity at 100 µM (HIV-1 [1]): 80% | reduction of MoMLV titers compared to untreated controls (MoMLV; 10-100 μM, 2 day treatment of LZ1 cells): no significant reductions | effect on number of syncytia (HIV-1 [2]): no effect on the number of synctia

CCCCOCCCCCCCCCCC(=O)O [Compound I, 11-(1-butoxy)undecanoic acid]
effectiveness versus analogs based on C13-C14 fatty acids (virus): less effective than the analogs based on C13 -C14 fatty acids

Cc1cn([C@H]2C[C@H](N=[N+]=[N-])[C@@H](CO)O2)c(=O)[nH]c1=O [AZT, 3'-azido-3'-deoxythymidine, reference compound]
inhibition of replication of the virus in vitro (AIDS virus (HIV)): shown to inhibit replicaton of the virus in vitro | inhibition at 5 µM (HIV-1 [1]; Human immunodeficiency virus 1, H9, read-out: inhibition of viral replication in the H9 acute assay): > 90%

CCSCCCCCCCCCCC(=O)O [12thiamyristate, 11-(Ethylthio)undecanoic acid]
ability to act as a substrate for NMT [3]: leaves intact its ability to act as a substrate | effect on reverse transcriptase activity (HIV-1 [1]): More pronounced effects | hydrophobicity (Hydrophobicity): decreases its hydrophobicity

CCCCCCCCOCCCCC(=O)O [6-oxamyristate, 5-(octyloxy)pentanoic acid]
effect on reverse transcriptase activity (HIV-1 [1]): No reduction in reverse transcriptase activity | relative efficacy on HIV-1 production (HIV-1 [1]; 1-100 μM, H9 cells, ranking among the four analogs): least effective | effect on HIV-1 production / replication (HIV-1 [1]; H9 cells): no effect on HIV-1 replication | activity at 100 µM (HIV-1 [1]): 20% | inhibition at 100 µM (MoMLV; Murine leukemia virus, NIH3T3, 48 h, read-out: average reduction in virus titers (MoMLV)): > 60% | inhibition at 10 µM (MoMLV; Murine leukemia virus, NIH3T3, 48 h, read-out: reduction in MoMLV replication (virus titer)): 40% | effect on MoMLV replication (MoMLV; up to 100 μM, 2 day treatment of LZ1 cells): inhibits MoMLV replication in a concentration dependent fashion

CCCOCCCCCCCCCC(=O)O [11oxamyristate, 10-(Propoxy)decanoic acid]
effect on reverse transcriptase activity (HIV-1 [1]): More pronounced effects
